Results reported in patent US9169254B2, “Spiroimidazolone derivative” (Chugai Seiyaku Kabushiki Kaisha, priority 2009, dated 2015).

target: T1, human PTH1 receptor (Homo sapiens, UniProt Q03431); assay: In vitro cAMP signal activity in HKRK-B7 cells (LLC-PK1 cells overexpressing the human PTH1 receptor); type: cell-based; details: 0.1 µM
T1 sequence (Q03431 27-593): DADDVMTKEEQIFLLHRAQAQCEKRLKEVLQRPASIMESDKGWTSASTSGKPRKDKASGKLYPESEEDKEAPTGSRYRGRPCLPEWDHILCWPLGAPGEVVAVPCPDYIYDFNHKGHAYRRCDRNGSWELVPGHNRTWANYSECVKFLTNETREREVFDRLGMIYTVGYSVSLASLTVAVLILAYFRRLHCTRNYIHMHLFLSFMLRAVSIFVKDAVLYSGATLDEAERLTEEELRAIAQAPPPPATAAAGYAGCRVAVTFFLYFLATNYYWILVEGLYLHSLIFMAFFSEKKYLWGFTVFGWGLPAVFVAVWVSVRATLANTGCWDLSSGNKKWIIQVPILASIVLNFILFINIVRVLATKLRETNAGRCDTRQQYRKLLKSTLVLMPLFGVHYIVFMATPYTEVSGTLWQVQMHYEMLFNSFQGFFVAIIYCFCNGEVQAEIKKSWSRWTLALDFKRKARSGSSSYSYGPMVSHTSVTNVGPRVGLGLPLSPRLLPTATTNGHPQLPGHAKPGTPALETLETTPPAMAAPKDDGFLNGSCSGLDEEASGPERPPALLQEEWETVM

Row | SMILES | cAMP production activity (%)
1 | Cc1cc(C(=O)N(C)C)ccc1CCS(=O)(=O)N1CCC2(CC1)N=C(Nc1ccc(C(F)(F)F)cc1)NC2=O [Compound 1396, 3,N,N-Trimethyl-4-{2-[4-oxo-2-(4-trifluoromethyl-phenylamino)-1,3,8-triaza-spiro[4.5]dec-1-ene-8-sulfonyl]-ethyl}-benzamide] | 133%

same assay, conditions: HKRK-B7 cells; compound at 1×10^−3 M; […]; 0.1 µM

Row | SMILES | cAMP production activity (%)
2 | COC(=O)N(C)c1ccc(CCS(=O)(=O)N2CCC3(CC2)N=C(c2cccc(OC(F)(F)F)c2)NC3=O)c(C)c1 [Compound 468, Methyl-(3-methyl-4-{2-[4-oxo-2-(3-trifluoromethoxy-phenyl)-1,3,8-triaza-spiro[4.5]dec-1-ene-8-sulfonyl]-ethyl}-phenyl)-carbamic acid methyl ester] | 90%

same assay, conditions: HKRK-B7 cells; compound at 1×10^−3 M; cAMP produced as percentage of that produced by hPTH(1-34) at 100 nM

Row | SMILES | cAMP production activity (%)
3 | Cc1cc(C(=O)N2CCS(=O)(=O)CC2)cc(C)c1/C=C/S(=O)(=O)N1CCC2(CC1)N=C(C1CCC(C)CC1)NC2=O (stereo not shown) [Compound 1002, 8-{(E)-2-[4-(1,1-dioxo-1λ^6-thiomorpholine-4-carbonyl)-2,6-dimethyl-phenyl]-ethenesulfonyl}-2-(4-methyl-cyclohexyl)-1,3,8-triaza-spiro[4.5]dec-1-en-4-one] | 50%
4 | Cc1cc(N(C)C(N)=O)cc(C)c1/C=C/[S@TB4](=O)(=O)N1CCC2(CC1)N=C(CCCCCCCCCCC(F)F)NC2=O [Compound 1125, 1-(4-{(E)-2-[2-(11,11-difluoro-undecyl)-4-oxo-1,3,8-triaza-spiro[4.5]dec-1-ene-8-sulfonyl]-vinyl}-3,5-dimethyl-phenyl)-1-methyl-urea] | 93%
5 | Cc1cc(N(C)C(N)=O)cc(C)c1CCS(=O)(=O)N1CCC2(CC1)N=C(CCCCCCCCCCCN)NC2=O [Compound 1366, 1-(4-{2-[2-(11-Amino-undecyl)-4-oxo-1,3,8-triaza-spiro[4.5]dec-1-ene-8-sulfonyl]-ethyl}-3,5-dimethyl-phenyl)-1-methyl-urea] | 103%
6 | CC(=O)N(CCOCCF)c1cc(C)c(CCS(=O)(=O)N2CCC3(CC2)N=C(C2CCC(CCC(F)(F)F)CC2)NC3=O)c(C)c1 (stereo not shown) [Compound 766, N-[3,5-dimethyl-4-(2-{4-oxo-2-[4-(3,3,3-trifluoro-propyl)-cyclohexyl]-1,3,8-triaza-spiro[4.5]dec-1-ene-8-sulfonyl}-ethyl)-phenyl]-N-[2-(2-fluoro-ethoxy)-ethyl]-acetamide] | 88%
7 | CC1=NC2(CCN(S(=O)(=O)c3cccc(Cl)c3)CC2)C(=O)N1 [Compound 8, 8-(3-chloro-benzenesulfonyl)-2-methyl-1,3,8-triaza-spiro[4.5]dec-1-en-4-one] | 2.6%
8 | Cc1cc(C(=O)N2CCC(C)(O)CC2)cc(C)c1/C=C/S(=O)(=O)N1CCC2(CC1)N=C(c1ccc(OCCCC(F)(F)F)c(C(F)(F)F)c1)NC2=O [Compound 1204, 8-{(E)-2-[4-(4-hydroxy-4-methyl-piperidine-1-carbonyl)-2,6-dimethyl-phenyl]-ethenesulfonyl}-2-[4-(4,4,4-trifluoro-butoxy)-3-trifluoromethyl-phenyl]-1,3,8-triaza-spiro[4.5]dec-1-en-4-one] | 83%
9 | CC1CCCC(C2=NC3(CCN(S(=O)(=O)c4cccc(Cl)c4)CC3)C(=O)N2)C1 (stereo not shown) [Compound 19, 8-(3-chloro-benzenesulfonyl)-2-(3-methyl-cyclohexyl)-1,3,8-triaza-spiro[4.5]dec-1-en-4-one] | 35%
10 | Cc1cc(N2C(=O)CNC2=O)ccc1CCS(=O)(=O)N1CCC2(CC1)N=C([C@H]1CC[C@H](CC=C(F)F)CC1)NC2=O [Compound 946, 3-[4-(2-{2-[4-(3,3-difluoro-allyl)-cyclohexyl]-4-oxo-1,3,8-triaza-spiro[4.5]dec-1-ene-8-sulfonyl}-ethyl)-3-methyl-phenyl]-imidazolidine-2,4-dione] | 102%
11 | Cc1cc(C(=O)N2CCN(CCCN(C)C)CC2)ccc1CCS(=O)(=O)N1CCC2(CC1)N=C(c1cccc(C(F)(F)F)c1)NC2=O [Compound 374, 8-(2-{4-[4-(3-dimethylamino-propyl)-piperazine-1-carbonyl]-2-methyl-phenyl}-ethanesulfonyl)-2-(3-trifluoromethyl-phenyl)-1,3,8-triaza-spiro[4.5]dec-1-en-4-one] | 79%
12 | O=C1NC(C2CCCCC2)=NC12CCN(S(=O)(=O)c1cccc(Cl)c1)CC2 [Compound 1, 8-(3-Chloro-benzenesulfonyl)-2-cyclohexyl-1,3,8-triaza-spiro[4.5]dec-1-en-4-one] | 42%
13 | Cc1cc(N2NCCC2=O)ccc1CCS(=O)(=O)N1CCC2(CC1)N=C([C@H]1CC[C@H](C)CC1)NC2=O [Compound 834, 2-(4-methyl-cyclohexyl)-8-{2-[2-methyl-4-(5-oxo-pyrazolidin-1-yl)-phenyl]-ethanesulfonyl}-1,3,8-triaza-spiro[4.5]dec-1-en-4-one] | 76%
14 | CCCCCCCCCC1=NC2(CCN(S(=O)(=O)CCc3c(C)cc(C(=O)N4CCCCC4)cc3C)CC2)C(=O)N1 [Compound 983, 8-{2-[2,6-dimethyl-4-(piperidine-1-carbonyl)-phenyl]-ethanesulfonyl}-2-nonyl-1,3,8-triaza-spiro[4.5]dec-1-en-4-one] | 91%
15 | Cc1cc(C(=O)N(C)C)ccc1-c1cccc(S(=O)(=O)N2CCC3(CC2)N=C(c2cccc(OC(F)(F)F)c2)NC3=O)n1 [Compound 337, 3,N,N-trimethyl-4-{6-[4-oxo-2-(3-trifluoromethoxy-phenyl)-1,3,8-triaza-spiro[4.5]dec-1-ene-8-sulfonyl]-pyridin-2-yl}-benzamide] | 17%
16 | Cc1cc(C(=O)N2CCC(OC[C@H](O)CO)CC2)cc(C)c1CCS(=O)(=O)N1CCC2(CC1)N=C(C1CCC(CCC(F)(F)F)CC1)NC2=O (stereo partly drawn) [Compound 1384, 8-(2-{4-[4-((R)-2,3-dihydroxy-propoxy)-piperidine-1-carbonyl]-2,6-dimethyl-phenyl}-ethanesulfonyl)-2-[4-(3,3,3-trifluoro-propyl)-cyclohexyl]-1,3,8-triaza-spiro[4.5]dec-1-en-4-one] | 78%
17 | CC(=O)Nc1ccc(CCS(=O)(=O)N2CCC3(CC2)N=C(C2CCCC2)NC3=O)c(C)c1 [Compound 903, N-{4-[2-(2-Cyclopentyl-4-oxo-1,3,8-triaza-spiro[4.5]dec-1-ene-8-sulfonyl)-ethyl]-3-methyl-phenyl}-acetamide] | 56%
18 | Cc1cc(N(C)C(N)=O)cc(C)c1/C=C/[S@TB3](=O)(=O)N1CCC2(CC1)N=C(c1ccc(F)c(OC(F)(F)F)c1)NC2=O [Compound 1111, 1-(4-{(E)-2-[2-(4-fluoro-3-trifluoromethoxy-phenyl)-4-oxo-1,3,8-triaza-spiro[4.5]dec-1-ene-8-sulfonyl]-vinyl}-3,5-dimethyl-phenyl)-1-methyl-urea] | 79%
19 | Cc1cc(C(=O)N2CCC(C)(O)CC2)cc(C)c1/C=C/S(=O)(=O)N1CCC2(CC1)N=C(c1ccc(OCC(F)(F)C(F)(F)F)c(C(F)(F)F)c1)NC2=O [Compound 1203, 8-{(E)-2-[4-(4-hydroxy-4-methyl-piperidine-1-carbonyl)-2,6-dimethyl-phenyl]-ethenesulfonyl}-2-[4-(2,2,3,3,3-pentafluoro-propoxy)-3-trifluoromethyl-phenyl]-1,3,8-triaza-spiro[4.5]dec-1-en-4-one] | 90%
